According to US20130102631A1, “NOVEL MICROBIOCIDAL DIOXIME ETHER DERIVATIVES” (SYNGENTA CROP PROTECTION LLC, priority 2010, published 2013):

Tests used:
[1] = test system: Mycosphaerella graminicola (Septoria tritici); assay: Mycosphaerella graminicola (Septoria tritici) / liquid culture (Septoria blotch); format: cell-based; conditions: Zymoseptoria tritici; at ≦200 ppm, liquid culture PDB, inhibition of growth photometrically 4-5 days after application; read-out: control of Mycosphaerella graminicola
[2] = test system: Puccinia recondita f. sp. tritici; assay: Puccinia recondita f. sp. tritici / wheat / leaf disc preventative (brown rust); format: in vivo; conditions: foliar, wheat leaf segments cv Kanzler, inoculated 1 day after application, assessed 7-9 days after application
Procedure: Puccinia recondita f. sp. Tritici/Wheat/Leaf Disc Preventative (Brown Rust): Wheat leaf segments cultivated variety (cv) Kanzler were placed on agar in 24-well plates and sprayed with formulated test compound diluted in water at an application rate of 200 ppm. The leaf disks were inoculated with a spore suspension of the fungus 1 day after application. The inoculated leaf segments were incubated at 19° C. and 75% relative humidity under a light regime of 12/12 h (light/dark) in a climate cabinet and the activity of a compound was assessed as percent disease control compared to untreated when an appropriate level of disease damage appears in untreated check leaf segments (7-9 days after application). […]-2.508; 5.561; 2.561; 2.513; 2.559; 2.556; 2.555; 2.374; 2.544; 2.537; 2.530; 2.525 (fraction B); 2.519; 2.516; 2.514; E/E-5.167; E/E-3.002; 2.512; E/E-2.507

[3] = test system: Monographella nivalis (Microdochium nivale); assay: Monographella nivalis (Microdochium nivale) / liquid culture (foot rot cereals); format: cell-based; conditions: at ≦200 ppm, liquid culture PDB, inhibition of growth photometrically 4-5 days after application, read-out: control of Monographella nivalis
Procedure: Monographella nivalis (Microdochium nivale)/Liquid Culture (Foot Rot Cereals): Conidia of the fungus from cryogenic storage were directly mixed into nutrient broth (PDB potato dextrose broth). After placing a DMSO solution of test compound into a 96-well microtiter plate, the nutrient broth containing the fungal spores was added. The test plates were incubated at 24° C. and the inhibition of growth was determined photometrically 4-5 days after application. […].57; 2.513; 2.559; 2.558; 2.556; 2.555; 2.374; 2.553; 2.551 (fraction B); 2.551 (fraction A); 2.548; 2.544; 2.542; 2.541; 2.539; 2.536; 2.535; 2.533; 2.530; 2.528; 2.526; 2.525 (fraction B); 2.525 (fraction A); 2.524; 2.519; 2.518; 2.516; 2.514; E/E-5.167; 2.512; 2.514

[4] = test system: Mycosphaerella arachidis (Cercospora arachidicola); assay: Mycosphaerella arachidis (Cercospora arachidicola) / liquid culture (early leaf spot); format: cell-based; conditions: at ≦200 ppm, liquid culture PDB, inhibition of growth photometrically 4-5 days after application, read-out: control of Mycosphaerella arachidis
Procedure: Mycosphaerella arachidis (Cercospora arachidicola)/Liquid Culture (Early Leaf Spot): Conidia of the fungus from cryogenic storage were directly mixed into nutrient broth (PDB potato dextrose broth). After placing a DMSO solution of test compound into a 96-well microtiter plate, the nutrient broth containing the fungal spores was added. The test plates are incubated at 24° C. and the inhibition of growth was determined photometrically 4-5 days after application. […]-2.509; 5.561; 2.561; P.57; 2.513; 2.559; 2.558; 2.557; 2.556; 2.555; 2.374; 2.553; 2.552; 2.551 (fraction B); 2.551 (fraction A); 2.544; 2.541; 2.539; 2.537; 2.536; 2.533; 2.532; 2.531; 2.530; 2.528; 2.526; 2.525 (fraction B); 2.525 (fraction A); 2.524; 2.520; 2.519; 2.510; 2.518; 2.517; 2.516; 2.514; […].002; 2.512; 2.511; 2.514

[5] = test system: Gaeumannomyces graminis; assay: Gaeumannomyces graminis / liquid culture (take-all of cereals); format: cell-based; conditions: at ≦200 ppm, liquid culture PDB, inhibition of growth photometrically 4-5 days after application, read-out: control of Gaeumannomyces graminis
Procedure: Gaeumannomyces graminis/Liquid Culture (Take-All of Cereals): Mycelial fragments of the fungus from cryogenic storage were directly mixed into nutrient broth (PDB potato dextrose broth). After placing a DMSO solution of test compound into a 96-well microtiter plate, the nutrient broth containing the fungal spores is added. The test plates were incubated at 24° C. and the inhibition of growth was determined photometrically 4-5 days after application. […]-2.509; 5.561; 2.561; P.57; 2.513; 2.559; 2.558; 2.557; 2.556; 2.555; 2.374; 2.553; 2.552; 2.551 (fraction B); 2.551 (fraction A); 2.539; 2.533; 2.528; 2.526; 2.525 (fraction B); 2.525 (fraction A); 2.524; 2.523; 2.521; 2.520; 2.519; 2.510; 2.518; 2.516; 2.514; E/E-5.167; E/E-3.002; 2.512; E/E-2.508

[6] = test system: Glomerella lagenarium; assay: Glomerella lagenarium (Colletotrichum lagenarium) / liquid culture (anthracnose); format: cell-based; conditions: Colletotrichum orbiculare; at ≦200 ppm, liquid culture PDB, inhibition of growth photometrically 3-4 days after application; read-out: control of Glomerella lagenarium
Procedure: Glomerella lagenarium (Colletotfichum lagenarium)/Liquid Culture (Anthracnose): Conidia of the fungus from cryogenic storage were directly mixed into nutrient broth (PDB potato dextrose broth). After placing a DMSO solution of test compound into a 96-well microtiter, the nutrient broth containing the fungal spores was added. The test plates were incubated at 24° C. and the inhibition of growth is measured photometrically 3-4 days after application. […]-2.509; 5.561; 2.561; E/E-2.208; P.57; 2.513; 2.559; 2.556; 2.555; 2.374; 2.552; 2.548; 2.544; 2.541; 2.540; 2.539; 2.537; 2.536; 2.533; 2.531; 2.530; 2.528; 2.526; 2.519; 2.510; 2.516; 2.514; E/E-5.167; E/E-3.002; 2.512; 2.514; Z/E-2.474

[7] = test system: Blumeria graminis f. sp. tritici (Erysiphe graminis f. sp. tritici); assay: Blumeria graminis f. sp. tritici / wheat / leaf disc preventative (powdery mildew on wheat); format: in vivo; conditions: foliar, wheat leaf segments cv. Kanzler, inoculated 1 day after application, assessed 6-8 days after application
Procedure: Blumeria graminis f. sp. tritici (Erysiphe graminis f. sp. tritici)/Wheat/Leaf Disc Preventative (Powdery Mildew on Wheat):
Wheat leaf segments cv. Kanzler were placed on agar in a 24-well plate and sprayed with the formulated test compound diluted in water at an application rate of 200 ppm. The leaf disks were inoculated by shaking powdery mildew infected plants above the test plates 1 day after application. The inoculated leaf disks were incubated at 20° C. and 60% relative humidity under a light regime of 24 h darkness followed by 12 h/12 h (dark/light) in a climate chamber and the activity of a compound was assessed as percent disease control compared to untreated when an appropriate level of disease damage appears on untreated check leaf segments (6-8 days after application). The following compounds gave at least 80% control of Blumeria graminis: E/E-2.168, E/E-2.474, E/E-2.002; 5.561; 2.561; E/E-2.208; 2.513; 2.559; 2.557; 2.556; 2.555; 2.374; 2.552; 2.537; 2.533; 2.530; 2.528; 2.526; 2.519; 2.510; 2.516; 2.514; E/E-5.167; E/E-3.002; 2.512; 2.511

[8] = test system: Pyrenophora teres; assay: Pyrenophora teres / barley / leaf disc preventative (net blotch); format: in vivo; conditions: foliar, barley leaf segments cv Hasso, inoculated two days after application, assessed 5-7 days after application
Procedure: Pyrenophora teres/Barley/Leaf Disc Preventative (Net Blotch): Barley leaf segments cv Hasso are placed on agar in a 24-well plate and sprayed with formulated test compound diluted in water at an application rate of 200 ppm. The leaf segments are inoculated with a spore suspension of the fungus two days after application of the test solution. The inoculated leaf segments are incubated at 20° C. and 65% relative humidity under a light regime of 12/12 h (light/dark) in a climate cabinet and the activity of a compound is assessed as disease control compared to untreated when an appropriate level of disease damage appears in untreated check leaf segments (5-7 days after application). […]-2.507; 5.561; 2.561; E/E-2.208; P.57; 2.513; 2.559; 2.558; 2.556; 2.555; 2.374; 2.552; 2.544; 2.537; 2.533; 2.530; 2.528; 2.519; 2.510; 2.516; 2.514; E/E-5.167; E/E-3.002; 2.512

[9] = test system: Phaeosphaeria nodorum (Septoria nodorum); assay: Phaeosphaeria nodorum (Septoria nodorum) / wheat / leaf disc preventative (glume blotch); format: in vivo; conditions: Parastagonospora nodorum, foliar, wheat leaf segments cv Kanzler, inoculated 2 days after application, assessed 5-7 days after application
Procedure: Phaeosphaeria nodorum (Septoria nodorum)/Wheat/Leaf Disc Preventative (Glume Blotch): Wheat leaf segments cv Kanzler were placed on agar in a 24-well plate and sprayed with formulated test compound diluted in water at an application rate of 200 ppm. The leaf disks are inoculated with a spore suspension of the fungus 2 days after application. The inoculated test leaf disks are incubated at 20° C. and 75% relative humidity under a light regime of 12/12 h (light/dark) in a climate cabinet and the activity of a compound is assessed as percent disease control compared to untreated when an appropriate level of disease damage appears in untreated check leaf disks (5-7 days after application). […]-2.508; 5.561; 2.561; E/E-2.208; P.57; 2.513; 2.559; 2.558; 2.557; 2.556; 2.555; 2.374; 2.544; 2.541; 2.539; 2.537; 2.536; 2.535; 2.533; 2.530; 2.526; 2.519; 2.510; 2.516; 2.514; E/E-5.167; E/E-3.002; 2.512

[10] = test system: Puccinia recondita f. sp. tritici; assay: Puccinia recondita f. sp. tritici / wheat / leaf disc curative (brown rust); format: in vivo; conditions: foliar, wheat leaf segments cv Kanzler, 200 ppm applied 1 day after inoculation, assessed 6-8 days after application
Procedure: Puccinia recondita f. sp. tritici/Wheat/Leaf Disc Curative (Brown Rust): Wheat leaf segments cv Kanzler were placed on agar in 24-well plates. The leaf segments were inoculated with a spore suspension of the fungus. The plates were stored in darkness at 19° C. and 75% relative humidity. The formulated test compound diluted in water was applied at an application rate of 200 ppm 1 day after inoculation. […]-2.508; 5.561; 2.561; E/E-2.208; 2.513; 2.559; 2.556; 2.555; 2.374; 2.552; 2.537; 2.519; 2.516; 2.514; […].002; 2.512; E/E-2.507

CC/C(=N/OCC(C)(C)CO/N=C1\CCCc2ccc(C)nc21)c1ncc(Cl)cc1F (single isomer, unassigned) [2.525 (fraction B)]
≥ 80%: inhibition of growth at up to 200 µg/mL [1] | pest or weed control at 200 ppm [2] | inhibition of growth at up to 200 µg/mL [3] | inhibition of growth at up to 200 µg/mL [4] | inhibition of growth at up to 200 µg/mL [5]

Cc1ccc2c(n1)/C(=N/OCC(C)(C)CO/N=C(\c1ccccc1)c1ccccn1)CCC2 [Compound 2.510]
≥ 80%: inhibition of growth at up to 200 µg/mL [6] | inhibition of growth at up to 200 µg/mL [1] | pest or weed control at 200 ppm [7] | pest or weed control at 200 ppm [8] | pest or weed control at 200 ppm [9] | inhibition of growth at up to 200 µg/mL [4] | inhibition of growth at up to 200 µg/mL [5]

Cc1ccc2c(n1)/C(=N/OCC(C)(C)CON=C(c1ccccn1)c1ccccn1)CCC2 [Compound 2.511]
≥ 80%: pest or weed control at 200 ppm [7] | inhibition of growth at up to 200 µg/mL [4]

Cc1ccc2c(n1)/C(=N/OCC(C)(C)CO/N=C/c1cccc(CO)n1)CCC2 [Compound 2.528]
≥ 80%: inhibition of growth at up to 200 µg/mL [6] | inhibition of growth at up to 200 µg/mL [1] | pest or weed control at 200 ppm [7] | pest or weed control at 200 ppm [8] | inhibition of growth at up to 200 µg/mL [3] | inhibition of growth at up to 200 µg/mL [4] | inhibition of growth at up to 200 µg/mL [5]

C/C(=N\OCC(C)(C)CO/N=C1\CCCc2ccc(C)nc21)c1cccc(-c2ccccc2Cl)n1 [Compound 2.544]
≥ 80%: inhibition of growth at up to 200 µg/mL [6] | inhibition of growth at up to 200 µg/mL [1] | pest or weed control at 200 ppm [2] | pest or weed control at 200 ppm [8] | pest or weed control at 200 ppm [9] | inhibition of growth at up to 200 µg/mL [3] | inhibition of growth at up to 200 µg/mL [4]

Cc1cc(C)nc(C(=NOCCCO/N=C2\CCCc3ccc(C)nc32)c2cc(C)cc(C)n2)c1 [Compound 2.557]
≥ 80%: pest or weed control at 200 ppm [7] | pest or weed control at 200 ppm [9] | inhibition of growth at up to 200 µg/mL [4] | inhibition of growth at up to 200 µg/mL [5]

C/C(=N\OCC(C)(O)CO/N=C1\CCCc2ccc(C)nc21)c1cccc(C)n1 (stereo not shown) [E/E-14.002]
≥ 80%: pest or weed control at 200 ppm [10] | inhibition of growth at up to 200 µg/mL [4]
